Results reported in ChEMBL document CHEMBL3885861, “Open TG-GATES”.

Organism: Rattus norvegicus
Experiment: Open TG-GATES - Regimen: Single
Format: toxicity, organism-based, Sprague-Dawley
Parameters: regimen Single, gender Male, age 6 weeks
Details: in vivo, po, route gavage; for APTT / Bas / Eos / Fbg / Hb / Ht / Lym / MCH / MCHC / MCV / Mono / Neu / PT / Plat / RBC / Ret / WBC: tissue Blood; for KIDNEY_L / KIDNEY_R / KIDNEY_TOTAL: tissue Kidney; for LIVER: tissue Liver; for A/G / ALP / ALT / AST / BUN / CRE / Ca / Cl / DBIL / GLC / IP / K / LDH / Na / PL / RALB / TBIL / TC / TG / TP / gamma-GTP: tissue Plasma
[1] = 150 mg/kg, 3 h, dose level Middle
[2] = 150 mg/kg, 6 h, dose level Middle
[3] = 150 mg/kg, 9 h, dose level Middle
[4] = 150 mg/kg, 24 h, dose level Middle
[5] = 500 mg/kg, 3 h, dose level High
[6] = 500 mg/kg, 6 h, dose level High
[7] = 500 mg/kg, 9 h, dose level High
[8] = 500 mg/kg, 24 h, dose level High

## CN1C(=O)CCS(=O)(=O)C1c1ccc(Cl)cc1 (centres undefined) [CHLORMEZANONE]
[1]
  TERMINAL_BW: 230 g
  APTT: 15.9 s
  Bas: 0%
  Eos: 1%
  Fbg: 314.4 mg/dL
  Hb: 13.5 g/dL
  Ht: 39.4%
  Lym: 77%
  MCH: 21.7 pg
  MCHC: 34.1%
  MCV: 63.6 fL
  Mono: 2.8%
  Neu: 18.4%
  PT: 13.1 s
  Plat: 123.1 x10_4/uL
  RBC: 620.2 x10_4/ul
  Ret: 7.9%
  WBC: 84.3 x10_2/uL
  KIDNEY_L: 1 g
  KIDNEY_R: 1 g
  KIDNEY_TOTAL: 1.9 g
  LIVER: 10.6 g
  A/G: 0.9
  ALP: 1400.8 IU/L
  ALT: 49.6 IU/L
  AST: 75.6 IU/L
  BUN: 11.6 mg/dL
  CRE: 0.2 mg/dL
  Ca: 11.6 mg/dL
  Cl: 104.2 meq/L
  DBIL: 0.018 mg/dL
  GLC: 182.2 mg/dL
  IP: 9.5 mg/dL
  K: 4.3 meq/L
  LDH: 56.8 IU/L
  Na: 140.6 meq/L
  PL: 157.6 mg/dL
  RALB: 2.6 g/dL
  TBIL: 0.034 mg/dL
  TC: 87 mg/dL
  TG: 95.6 mg/dL
  TP: 5.6 g/dL
  gamma-GTP: 1 IU/L
[2]
  TERMINAL_BW: 229.6 g
  APTT: 17.8 s
  Bas: 0%
  Eos: 0.6%
  Fbg: 295 mg/dL
  Hb: 13.8 g/dL
  Ht: 41.1%
  Lym: 77.8%
  MCH: 22.1 pg
  MCHC: 33.6%
  MCV: 65.8 fL
  Mono: 3.8%
  Neu: 16.8%
  PT: 13.6 s
  Plat: 119.1 x10_4/uL
  RBC: 624.4 x10_4/ul
  Ret: 8.5%
  WBC: 70.9 x10_2/uL
  KIDNEY_L: 1 g
  KIDNEY_R: 1 g
  KIDNEY_TOTAL: 2 g
  LIVER: 10.1 g
  A/G: 0.9
  ALP: 1441.2 IU/L
  ALT: 41.6 IU/L
  AST: 71.8 IU/L
  BUN: 9.2 mg/dL
  CRE: 0.2 mg/dL
  Ca: 11.7 mg/dL
  Cl: 105.6 meq/L
  DBIL: 0.014 mg/dL
  GLC: 184.2 mg/dL
  IP: 11.2 mg/dL
  K: 4.5 meq/L
  LDH: 61.4 IU/L
  Na: 142.8 meq/L
  PL: 152 mg/dL
  RALB: 2.7 g/dL
  TBIL: 0.038 mg/dL
  TC: 76 mg/dL
  TG: 57.2 mg/dL
  TP: 5.7 g/dL
  gamma-GTP: 1.6 IU/L
[3]
  TERMINAL_BW: 228.1 g
  APTT: 14 s
  Bas: 0%
  Eos: 0.6%
  Fbg: 329.4 mg/dL
  Hb: 13.1 g/dL
  Ht: 38.8%
  Lym: 74.2%
  MCH: 21.8 pg
  MCHC: 33.8%
  MCV: 64.4 fL
  Mono: 2.8%
  Neu: 21.2%
  PT: 13.3 s
  Plat: 118.2 x10_4/uL
  RBC: 603 x10_4/ul
  Ret: 8%
  WBC: 89.8 x10_2/uL
  KIDNEY_L: 1 g
  KIDNEY_R: 1 g
  KIDNEY_TOTAL: 1.9 g
  LIVER: 9 g
  A/G: 0.9
  ALP: 1520.8 IU/L
  ALT: 38.6 IU/L
  AST: 70.6 IU/L
  BUN: 9.8 mg/dL
  CRE: 0.2 mg/dL
  Ca: 11.3 mg/dL
  Cl: 105 meq/L
  DBIL: 0.02 mg/dL
  GLC: 194.6 mg/dL
  IP: 11.2 mg/dL
  K: 4 meq/L
  LDH: 55.8 IU/L
  Na: 142.8 meq/L
  PL: 150.2 mg/dL
  RALB: 2.6 g/dL
  TBIL: 0.04 mg/dL
  TC: 78.4 mg/dL
  TG: 67.2 mg/dL
  TP: 5.5 g/dL
  gamma-GTP: 1.4 IU/L
[4]
  TERMINAL_BW: 227.1 g
  APTT: 17.4 s
  Bas: 0%
  Eos: 1%
  Fbg: 271.6 mg/dL
  Hb: 13.4 g/dL
  Ht: 39.4%
  Lym: 77%
  MCH: 21.9 pg
  MCHC: 34.1%
  MCV: 64.2 fL
  Mono: 3.4%
  Neu: 17.8%
  PT: 13.3 s
  Plat: 123.4 x10_4/uL
  RBC: 615.2 x10_4/ul
  Ret: 7.5%
  WBC: 94.1 x10_2/uL
  KIDNEY_L: 1 g
  KIDNEY_R: 1 g
  KIDNEY_TOTAL: 2 g
  LIVER: 10.9 g
  A/G: 0.9
  ALP: 1673.6 IU/L
  ALT: 50.4 IU/L
  AST: 82.4 IU/L
  BUN: 15.6 mg/dL
  CRE: 0.2 mg/dL
  Ca: 11.4 mg/dL
  Cl: 105.4 meq/L
  DBIL: 0.022 mg/dL
  GLC: 192 mg/dL
  IP: 7.6 mg/dL
  K: 4.2 meq/L
  LDH: 69.4 IU/L
  Na: 142 meq/L
  PL: 138.4 mg/dL
  RALB: 2.6 g/dL
  TBIL: 0.028 mg/dL
  TC: 79.8 mg/dL
  TG: 119 mg/dL
  TP: 5.6 g/dL
  gamma-GTP: 1 IU/L
[5]
  TERMINAL_BW: 225.7 g
  APTT: 17.2 s
  Bas: 0%
  Eos: 1%
  Fbg: 308.4 mg/dL
  Hb: 13.4 g/dL
  Ht: 40.2%
  Lym: 72.8%
  MCH: 21.9 pg
  MCHC: 33.4%
  MCV: 65.4 fL
  Mono: 3.8%
  Neu: 21.8%
  PT: 13.2 s
  Plat: 113.8 x10_4/uL
  RBC: 614.4 x10_4/ul
  Ret: 8.6%
  WBC: 42.6 x10_2/uL
  KIDNEY_L: 1 g
  KIDNEY_R: 1 g
  KIDNEY_TOTAL: 2 g
  LIVER: 9.8 g
  A/G: 0.9
  ALP: 1556.6 IU/L
  ALT: 41.2 IU/L
  AST: 63.6 IU/L
  BUN: 9.6 mg/dL
  CRE: 0.1 mg/dL
  Ca: 10.8 mg/dL
  Cl: 102 meq/L
  DBIL: 0.012 mg/dL
  GLC: 212.4 mg/dL
  IP: 10.3 mg/dL
  K: 3.9 meq/L
  LDH: 54.2 IU/L
  Na: 140.8 meq/L
  PL: 145 mg/dL
  RALB: 2.5 g/dL
  TBIL: 0.038 mg/dL
  TC: 76.4 mg/dL
  TG: 63.6 mg/dL
  TP: 5.3 g/dL
  gamma-GTP: 1 IU/L
[6]
  TERMINAL_BW: 226.3 g
  APTT: 16.7 s
  Bas: 0%
  Eos: 1%
  Fbg: 340.6 mg/dL
  Hb: 13.2 g/dL
  Ht: 39.2%
  Lym: 72.6%
  MCH: 21.2 pg
  MCHC: 33.8%
  MCV: 62.7 fL
  Mono: 2.6%
  Neu: 23.4%
  PT: 13.6 s
  Plat: 111.4 x10_4/uL
  RBC: 625.4 x10_4/ul
  Ret: 8.1%
  WBC: 28.5 x10_2/uL
  KIDNEY_L: 0.9 g
  KIDNEY_R: 0.9 g
  KIDNEY_TOTAL: 1.9 g
  LIVER: 9.9 g
  A/G: 0.9
  ALP: 1317.4 IU/L
  ALT: 44 IU/L
  AST: 66.8 IU/L
  BUN: 8 mg/dL
  CRE: 0.1 mg/dL
  Ca: 10.8 mg/dL
  Cl: 101.2 meq/L
  DBIL: 0.006 mg/dL
  GLC: 218.4 mg/dL
  IP: 10.6 mg/dL
  K: 3.6 meq/L
  LDH: 56.4 IU/L
  Na: 139.6 meq/L
  PL: 160 mg/dL
  RALB: 2.5 g/dL
  TBIL: 0.03 mg/dL
  TC: 93.2 mg/dL
  TG: 39.6 mg/dL
  TP: 5.4 g/dL
  gamma-GTP: 1 IU/L
[7]
  TERMINAL_BW: 229 g
  APTT: 16.4 s
  Bas: 0%
  Eos: 0.6%
  Fbg: 317.8 mg/dL
  Hb: 13.4 g/dL
  Ht: 39.2%
  Lym: 68.8%
  MCH: 21.9 pg
  MCHC: 34.2%
  MCV: 64 fL
  Mono: 2.8%
  Neu: 27.6%
  PT: 13.6 s
  Plat: 127.7 x10_4/uL
  RBC: 613 x10_4/ul
  Ret: 8.1%
  WBC: 40.7 x10_2/uL
  KIDNEY_L: 1 g
  KIDNEY_R: 1 g
  KIDNEY_TOTAL: 1.9 g
  LIVER: 10.1 g
  A/G: 0.9
  ALP: 1555.8 IU/L
  ALT: 39.8 IU/L
  AST: 66 IU/L
  BUN: 10 mg/dL
  CRE: 0.1 mg/dL
  Ca: 11 mg/dL
  Cl: 100.4 meq/L
  DBIL: 0.014 mg/dL
  GLC: 255.4 mg/dL
  IP: 10.3 mg/dL
  K: 3.8 meq/L
  LDH: 66.4 IU/L
  Na: 139 meq/L
  PL: 165.8 mg/dL
  RALB: 2.6 g/dL
  TBIL: 0.034 mg/dL
  TC: 90.6 mg/dL
  TG: 89.8 mg/dL
  TP: 5.5 g/dL
  gamma-GTP: 1.2 IU/L
[8]
  TERMINAL_BW: 214.2 g
  APTT: 21.3 s
  Bas: 0%
  Eos: 0.6%
  Fbg: 258.6 mg/dL
  Hb: 14.2 g/dL
  Ht: 40.4%
  Lym: 73.4%
  MCH: 21.7 pg
  MCHC: 35.2%
  MCV: 61.9 fL
  Mono: 4%
  Neu: 21.8%
  PT: 14.3 s
  Plat: 121 x10_4/uL
  RBC: 653.6 x10_4/ul
  Ret: 7.3%
  WBC: 73.2 x10_2/uL
  KIDNEY_L: 0.9 g
  KIDNEY_R: 0.9 g
  KIDNEY_TOTAL: 1.9 g
  LIVER: 9.7 g
  A/G: 0.8
  ALP: 1746 IU/L
  ALT: 46.2 IU/L
  AST: 89.6 IU/L
  BUN: 14.2 mg/dL
  CRE: 0.2 mg/dL
  Ca: 11.2 mg/dL
  Cl: 104.6 meq/L
  DBIL: 0.048 mg/dL
  GLC: 193.2 mg/dL
  IP: 8 mg/dL
  K: 3.9 meq/L
  LDH: 113 IU/L
  Na: 142 meq/L
  PL: 146.2 mg/dL
  RALB: 2.6 g/dL
  TBIL: 0.058 mg/dL
  TC: 69.6 mg/dL
  TG: 239.2 mg/dL
  TP: 5.8 g/dL
  gamma-GTP: 1 IU/L
